In PubChem BioAssay (NCI):
Several values for one entry are separate records, joined by “and”; a condition that tells them apart may be missing. Equal entries are not always repeated.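 Results reflect a 48-hour exposure of cells in 96-well plates to compound at five concentrations. GI50 = concentration required for 50% inhibition of growth. Definition used: TGI = concentration required for complete inhibition of growth.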

Tests used:
Assay in all cases: NCI-60 cell line screen, 48 h
KM20L2 colon = tested on: KM20L2 colon
NCI-H226 lung = tested on: NCI-H226 lung
SK-OV-3 ovarian = tested on: SK-OV-3 ovarian
DMS 273 small cell lung = tested on: DMS 273 small cell lung
SR leukemia = tested on: SR leukemia
MOLT-4 leukemia = tested on: MOLT-4 leukemia
EKVX NSCLC = tested on: EKVX NSCLC
MDA-MB-231 breast = tested on: MDA-MB-231 breast
T-47D breast = tested on: T-47D breast
BT-549 breast = tested on: BT-549 breast

Row | Structure (SMILES) | TGI (KM20L2 colon) | TGI (NCI-H226 lung) | TGI (SK-OV-3 ovarian) | TGI (DMS 273 small cell lung) | TGI (SR leukemia) | TGI (MOLT-4 leukemia) | TGI (EKVX NSCLC) | GI50 (MDA-MB-231 breast) | TGI (MDA-MB-231 breast) | GI50 (T-47D breast) | TGI (T-47D breast) | GI50 (NCI-H226 lung) | GI50 (SK-OV-3 ovarian) | GI50 (BT-549 breast) | TGI (BT-549 breast) | GI50 (SR leukemia) | GI50 (MOLT-4 leukemia) | GI50 (EKVX NSCLC)
1 | CC(=O)Nc1ccc(OCC(O)CO)cc1 (stereo unspecified) | > 100 µM | > 100 µM | > 100 µM | > 100 µM | > 100 µM | > 100 µM | > 100 µM | – | – | – | – | – | – | – | – | – | – | –
2 | N#CC1([N+](=O)[O-])C=C1c1ccccc1 (stereo unspecified) | > 100 µM | > 100 µM | > 100 µM | > 100 µM | 70.3 µM | > 100 µM | > 100 µM | – | – | – | – | – | – | – | – | – | – | –
3 | CC(=O)OC1(C#N)CC2OC1C1NC21 (stereo unspecified) | > 100 µM | > 100 µM | > 100 µM | – | – | > 100 µM | > 100 µM | – | – | – | – | – | – | – | – | – | – | –
4 | CCCCCCCCCCCCCCCC(N)c1ccccc1 (stereo unspecified) | – | 3.69 µM | 2.92 µM | – | 2.43 µM | 3.42 µM | 3.01 µM | 1.35 µM | 2.95 µM | 1.56 µM | 3.08 µM | 1.91 µM | 1.58 µM | 1.63 µM | 3.11 µM | 0.558 µM | 1.58 µM | 1.59 µM
5 | NS(=O)(=O)c1ccc(N=Nc2c(=O)[nH]c3ccc4[nH]cccc4c23)cc1 | – | 3.06 µM | > 25 µM | – | 0.652 µM | 3.31 µM | > 25 µM | 0.885 µM | > 7.89 µM | 0.48 µM | 1.98 µM | 0.317 µM | 1.25 µM | 0.498 µM | 1.72 µM | 0.147 µM | 0.632 µM | 2.1 µM
6 | O=C1OC(=O)C2C1C1C(c3ccccc3)=C(c3ccccc3)C2(O)C2C(=O)OC(=O)C12 (stereo unspecified) | > 100 µM | > 100 µM | > 100 µM | – | > 100 µM | > 100 µM | > 100 µM | – | – | – | – | – | – | – | – | – | – | –
7 | CC(=O)CC(=O)ON(C)C(=O)Cc1ccccc1 | > 100 µM | > 100 µM | > 100 µM | > 100 µM | > 100 µM | > 100 µM | – | – | – | – | – | – | – | – | – | – | – | –
8 | CCCC(CCC)C(=O)O | – | > 20000 µM | > 20000 µM | – | > 20000 µM | > 20000 µM | > 20000 µM | > 100 µM | > 20000 µM | > 100 µM | > 20000 µM | > 20000 µM | > 20000 µM | > 100 µM | > 20000 µM | > 100 µM | > 100 µM | > 20000 µM
9 | CC1CCC2[C@@H](C)COC3O[C@]4(C)CCC1C32OO4 (stereo partly specified) | > 100 µM | > 100 µM | > 100 µM | > 100 µM | – | – | > 100 µM | – | – | – | – | – | – | – | – | – | – | –
10 | CC(=O)N1c2ccc(-c3ccc(C(=O)O)cc3)cc2[C@H](Nc2ccc(Cl)cc2)C[C@@H]1C | – | 19.9 µM | 22.5 µM | – | 18.7 µM | 39.2 µM | > 64 µM | 1.19 µM | > 100 µM | 0.108 µM | 31 µM | 1.71 µM | 0.138 µM | 1.27 µM | 29.6 µM | 0.0342 µM | 1.79 µM | 0.452 µM
11 | NC(=S)N=Nc1c(O)[nH]c2ccccc12 | – | 307 µM | 431 µM | – | – | > 1000 µM | 318 µM | 158 µM | 385 µM | 184 µM | 617 µM | 169 µM | 209 µM | 131 µM | 258 µM | 98.2 µM | 243 µM | 19.2 µM and 123 µM
12 | Nc1ncnc2c1ncn2COC/C=C/I | – | > 100 µM | > 100 µM | > 100 µM | > 100 µM | > 100 µM | > 100 µM | – | – | – | – | – | – | – | – | – | – | –
13 | COC(=O)CCc1c(/C=C2\N=C(c3ccc[nH]3)C=C2OC)[nH]c(C)c1C(=O)OCc1ccccc1 | – | 4.75 µM | 12.6 µM | – | 1.72 µM | 5.1 µM | 5.29 µM | 0.17 µM | 1.57 µM | 0.235 µM | 1.45 µM | 0.532 µM | 1.67 µM | 0.335 µM | 2.57 µM | 0.185 µM | 0.23 µM | 0.733 µM
14 | CN1CCN(Cc2ccc(NC(=O)c3[nH]ncc3Nc3cc(OC4CCCC4)ncn3)cc2)CC1 | – | 10.8 µM | 4.36 µM | – | 6.1 µM | 8.66 µM | 18.6 µM | 2.64 µM | 7.46 µM | 5.06 µM | 21.5 µM | 2.98 µM | 1.28 µM | 1.75 µM | 3.97 µM | 1.03 µM | 2.16 µM | 3.86 µM
15 | CN1C(=O)C(C)(C)Oc2c(-c3cn(C)c(=O)c4[nH]ccc34)cc(S(C)(=O)=O)cc21 | – | > 100 µM | 7.04 µM | – | > 100 µM | > 100 µM | > 100 µM | 0.664 µM | > 100 µM | 0.808 µM | > 100 µM | 2.26 µM | 0.705 µM | 1.09 µM | 14.7 µM | 0.469 µM | 1.42 µM | 0.972 µM
16 | Cc1ccc(NC(=O)CC2C(=O)Nc3ccccc3S2(=O)=O)cc1C (stereo unspecified) | > 100 µM | > 100 µM | – | > 100 µM | > 100 µM | > 100 µM | > 100 µM | – | – | – | – | – | – | – | – | – | – | –
17 | CC(C)Cn1cnc2c(SCc3ccccn3)nc(N)nc21 | – | > 100 µM | > 100 µM | – | > 100 µM | – | > 100 µM | – | > 100 µM | – | > 100 µM | – | – | – | > 100 µM | – | – | –
18 | C[C@H](c1ccc(Cl)cc1[N+](=O)[O-])N1C(=O)c2cc(I)ccc2NC(=O)[C@H]1c1ccc(Cl)cc1 | – | > 100 µM | > 100 µM | – | > 100 µM | > 100 µM | > 100 µM | 3.46 µM | > 100 µM | 5.37 µM | > 100 µM | > 100 µM | > 100 µM | > 100 µM | > 100 µM | 28 µM | 8.76 µM | 4.98 µM
19 | COC(=O)C(C(=O)C(=O)Nc1ccc(N)cc1[N+](=O)[O-])c1nc2ccc(Cl)cc2[nH]c1=O (stereo unspecified) | > 100 µM | > 100 µM | > 100 µM | > 100 µM | – | > 100 µM | > 100 µM | – | – | – | – | – | – | – | – | – | – | –
20 | CC(=O)Nc1cc(CN2CCCCC2)c(O)c2ncccc12 | – | 86.1 µM | > 100 µM | – | 37.5 µM | 43.1 µM | > 100 µM | – | 55.6 µM | – | > 100 µM | – | – | – | > 100 µM | – | – | –
21 | CCCCCC/C(CC(=O)CCC(=O)NCCc1ccccc1)=N\NC(=O)c1ccc2ccccc2c1O | > 100 µM | > 100 µM | – | – | – | 56.5 µM | > 100 µM | – | – | – | – | – | – | – | – | – | – | –
